Patent publication US20070281947A1, “Diarylmethylpiperazines As Prophylactic Or Therapeutic Agents For Viral Myocarditis” (priority 2002, published 2007)
Marks after values point to notes of the source that are not given here.

How the values were obtained:
Assay type in all cases: in vivo
[1] = test system: EMC (encephalomyocarditis) virus; experiment: Effect on survival rate in a cardiac insufficiency model induced by EMC viral myocarditis in mice; settings: for Survival rate (day 14): DBA/2 mice, EMC virus 1 pfu/mouse i.p., n = 10, control 10%
Experimental: A comparative study was conducted on the effect of cetirizine on survival rate in a cardiac insufficiency model induced by EMC (encephalomyocarditis) viral myocarditis in mice.
28-day-old, male DBA/2 mice were divided into three groups, and EMC virus that causes myocarditis was inoculated intraperitoneally to all groups at 1 pfu/mouse (0.1 ml as phosphate-buffered saline (PBS)) (day 0)(pfu means plaque forming unit). The EMC virus used here was acquired from ATCC (American Type Culture Collection, Manassas, Va., U.S.A.), and said EMC virus was used after diluting with PBS.
Following inoculation, a control group given only distilled water to serve as a control (n=10), a cetirizine low dose group to which cetirizine dissolved in distilled water was administered at a dose of 1 mg/kg/day (n=10), and a cetirizine high dose group to which cetirizine dissolved in distilled water was administered at 10 mg/kg/day (n=10), were forcibly fed once a day using a cannula (Wakenyaku Co., Ltd.) for 14 consecutive days.
The survival rates of the above three groups after 14 days were compared according to the Kaplan-Meier method (documents such as StatView, SAS Institute Inc., Cary, N.C., U.S.A. 1988 can be referred to for further details regarding this Kaplan-Meier method).
Data are obtained by analyzing the results obtained above according to the Kaplan-Meier method.

EMC virus [2] = experiment: Effect on histopathological changes in heart muscle in a cardiac insufficiency model induced by EMC viral myocarditis in mice; settings: for Heart weight (g) (day 5) / Heart weight/body weight ratio (day 5): DBA/2 mice; for Heart weight (g) (day 5): EMC virus 1 pfu/mouse i.p.; for Heart weight/body weight ratio (day 5): EMC virus
Experimental: A comparative study was conducted on the effect of cetirizine on histopathological changes in heart muscle in a cardiac insufficiency model induced by EMC viral myocarditis in mice.
28-day-old, male DBA/2 mice were divided into three groups, and EMC virus was inoculated intraperitoneally to all groups at 1 pfu/mouse (day 0) in the same manner as Test Example 1.
(§1) Following inoculation, similar to Example 1, a control group given only distilled water to serve as a control (n=7), a cetirizine low dose group to which cetirizine was administered at a dose of 1 mg/kg/day (n=10), and a cetirizine high dose group to which cetirizine was administered at 10 mg/kg/day (n=7), were forcibly fed once a day using a cannula in the same manner as Test Example 1 for 5 consecutive days.
After five days, the hearts of the animals were removed, stained with hematoxylin-eosin stain after fixing with formalin, and scored for the two parameters of heart muscle cellular necrosis and inflammatory cellular invasion in the manner described below (documents such as Circulation 1999; 100; 1823-1829 can be referred to for further details regarding this formalin fixation, hematoxylin-eosin staining and scoring). The scores for heart muscle cellular necrosis and inflammatory cellular invasion were evaluated independently by two observers and then averaged. Statistical analysis was performed using the one way analysis of variance (ANOVA) and Fisher's protected least significant difference test (documents such as StatVien, SAS Institute Inc., Cary, N.C., U.S.A., 1998 can be referred to for further details regarding these statistical analysis methods).
1+: Lesions in 25% or less of heart
2+: Lesions in more than 25% to 50% of heart
3+: Lesions in more than 50% to 75% of heart
4+: Lesions in more than 75% to 100% of heart
Data consisting of heart weight, body weight, heart weight/body weight ratio, heart muscle cellular necrosis and inflammatory cellular invasion measured in accordance with that described above is summarized in Table 1 below. Furthermore, the previously described survival rate data and data relating to heart muscle interferon production to be described later are also shown in Table 1.

EMC virus [3] = experiment: Effect on intramyocardial cytokine production (ELISA) in a cardiac insufficiency model induced by EMC viral myocarditis in mice
Experimental: A comparative study was conducted on the effect of cetirizine on cytokine production within heart muscle in a cardiac insufficiency model induced by EMC viral myocarditis in mice.
28-day-old, male DBA/2 mice were divided into three groups, and EMC virus was inoculated intraperitoneally to all groups at 1 pfu/mouse (day 0) in the same manner as Example 1.
as §1, with “(n=10),” for “(n=7),”, “7” for “5”, “days. […]” for “days.”
The protein concentration of each cytokine was measured by ELISA using a commercially available kit (Circulation, 100: 1102-1108, 1999). […]
The total protein concentration of each supernatant was measured by the bicinchoninic acid (BCA) method followed by calculation of the ratio of cytokine concentration to total protein concentration (J. Am. Coll. Cardiol., 33: 1400-1407, 1999). Each cytokine protein concentration was expressed as pg/mg of total protein or ng/mg of total protein. […]

[4] = 1 mg/kg/day oral, 5 days, n = 10, mean ± SD
[5] = 10 mg/kg/day oral, 5 days, n = 7, mean ± SD
[6] = score 0 to 4+ (share of heart with lesions), two observers averaged, 1 mg/kg/day oral, 5 days, n = 10, mean ± SD

Structure (SMILES): O=C(O)COCCN1CCN(C(c2ccccc2)c2ccc(Cl)cc2)CC1 (racemic) [Cetirizine, (±)-[2-[4-[(4-chlorophenyl)phenylmethyl]-1-piperazinyl]ethoxy]acetic acid]
- Effect on survival rate (in words) ([1]; 1 and 10 mg/kg/day, 14 days, Kaplan-Meier, p<0.05): improved concentration-dependently
- Survival rate (day 14) ([1]; 1 mg/kg/day oral, 14 days, 1 mg/kg/day): 40% (4/10)
- Survival rate (day 14) ([1]; 1 mg/kg/day oral, 14 days, listed as cetirizine, 1 mg/kg/day): 40%
- Survival rate (day 14) ([1]; 10 mg/kg/day oral, 14 days, p < 0.05 vs. control, 10 mg/kg/day): 50% (5/10)*
- Survival rate (day 14) ([1]; 10 mg/kg/day oral, 14 days, p < 0.05 vs. control, listed as cetirizine, 10 mg/kg/day): 50%
- Overall efficacy against EMC viral infection / viral myocarditis (in words) ([1]; summary of Examples 1 and 2: improved mortality rate of mice and viral myocarditis): effective against viral infection
- Histopathological changes of the heart (in words) (EMC virus [2]; 1 and 10 mg/kg/day, day 5, dose-dependently): trend of diminished inflammatory cell invasion and necrosis
- Heart weight (g) (day 5) (EMC virus [2]; [4]): 0.07 ± 0.008 g
- Heart weight (g) (day 5) (EMC virus [2]; [5]): 0.60 ± 0.006 g
- Heart weight/body weight ratio (day 5) (EMC virus [2]; [4]): 5.4 ± 1.1
- Heart weight/body weight ratio (day 5) (EMC virus [2]; [5]): 5.1 ± 0.8
- Heart muscle cellular necrosis (day 5) (EMC virus [2]; [6]): 1.8 ± 1.0
- Inflammatory cellular invasion (day 5) (EMC virus [2]; [6]): 2.3 ± 0.8
- Intramyocardial IFN-γ (in words) (EMC virus [3]; 7 days after virus inoculation, 1 and 10 mg/kg/day): concentration-dependent increase
- Heart muscle interferon-γ (day 7) (EMC virus [3]; ELISA of ventricle homogenate, relative to total protein, 1 mg/kg/day oral, 7 days, n = 10, mean ± SD, p < 0.05 vs. control): 2.2 ± 1.0
